Laboratory results as given in patent US20260364184A1, “COMPOUND BASED ON OXOISOINDOLINYL-SUBSTITUTED TETRAHYDROPYRIMIDINE-DIONE AND USE THEREOF” (GLUETACS THERAPEUTICS (SHANGHAI) CO., LTD., priority 2023, published 2026).
Values belong to the molecule of their own block, whether it stands above or below them.

How the values were obtained:
[1] = system: Human lung cancer cell line (H292); assay: Inhibition of H292 cell proliferation (CellTiter luminescent viability); type: cell-based; conditions: NCI-H292, Table IE2, CDK4/6 inhibitor-based, 96 hours; for inhibition at 0.01 µM: H292, 10 nM, read-out: Inhibition Rate at 10 nM (%); for inhibition at 0.5 µM: H292, 500 nM, read-out: Inhibition Rate at 500 nM (%)
CDK4 = molecular target: T1, CDK4 (Homo sapiens, UniProt P11802+Q96SW2); assay: Western blot degradation of CDK4; type: cell-based; conditions: MDA-MB-231 Cell; 24 hours
T1 construct: expression of target proteins in cells; endogenous in cells
Procedure: (§1) Conventional Western blot assay was performed to evaluate the effects of the compounds of the present disclosure on the expression of target proteins in cells.
(§2) (1) Cell Seeding and Protein Harvesting: The selected cells were processed according to the cell seeding procedure and protein harvesting procedure in Table II-2.
(§3) (2) To the collected supernatant, 5×SDS sample loading buffer was added, followed by denaturation at 95 °C for 5 minutes. The denatured samples were then separated by SDS-PAGE electrophoresis on a polyacrylamide gel. Proteins were transferred to a nitrocellulose membrane (0.45 μm NC membrane), blocked with blocking buffer at room temperature for 1 hour, and subjected to antibody incubation and development procedures according to the antibody manufacturer's instructions (Cell Signaling Technology).
(§4) Half-Maximal Degradation Concentration value (the drug concentration required for degrading proteins by 50%, abbreviated as DC50) reads method: comparing the grayscale values of Western blot bands from drug-treated samples with those from blank DMSO-treated controls, and identifying the drug concentration range at which the grayscale value is half that of the DMSO-treated control bands.
(§5) DC50 values can be calculated using ImageJ software to measure grayscale values of Western blot bands from drug-treated samples. The concentration-response curve is fitted to estimate the drug concentration corresponding to half the grayscale value.
(§6) Target protein remaining (%) refers to the percentage of target protein remaining in cells after treatment with protein degrader compounds.
(§7) Calculation method for target protein remaining (%): Use ImageJ software to measure grayscale values of Western blot bands from drug (protein degrader)-treated samples. The grayscale value of drug-treated bands is divided by that of internal control protein bands, and the resulting quotient is normalized to obtain the relative percentage of remaining target protein after protein degrader treatment.
(§8) Target protein degradation rate (%)=1−target protein remaining (%).

CDK6 = molecular target: T2, CDK6 (Homo sapiens, UniProt Q00534+Q96SW2); assay: Western blot degradation of CDK6; type: cell-based; conditions: MDA-MB-231 Cell; 24 hours
T2 construct: expression of target proteins in cells; endogenous in cells
Procedure: as §1, §2, §3, §4, §5, §6, §7, §8

[2] = molecular target: T3, human Cereblon WT GST-tagged protein (CRBN) (Homo sapiens, UniProt Q96SW2); assay: CRBN binding by HTRF (Cereblon binding kit)
T3 construct: purchased CISBIO 64BDCRBNPEH
Procedure, shortened: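 GST-tagged human Cereblon WT was incubated 3 h at room temperature with compound, thalidomide-Re tracer and Eu anti-GST antibody. Final compound concentrations were 10 to 0.00064 µM (7 points) or 2 and 0.5 µM. Inhibition rate was calculated from HTRF 665/620 nm ratios versus solvent and blank controls.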

[3] = system: Human myeloid monocytic leukemia cell line (MV-4-11); assay: Inhibition of MV-4-11 cell proliferation (CellTiter luminescent viability); type: cell-based; conditions: Homo sapiens, MV4-11, Table IE3, CDK4/6 inhibitor-based, 96 hours
Procedure, shortened: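 Cells are seeded in 96-well plates, cultured at 37 °C, 5% CO2, and treated next day with 5-fold serial compound dilutions (stock series from 2000 μM; 0.5 μL into 100 μL medium). Viability is read by CellTiter-Meiluncell luminescence after the set exposure, and IC50 is taken from growth-inhibition curves.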

T1 sequence (P11802 whole entry): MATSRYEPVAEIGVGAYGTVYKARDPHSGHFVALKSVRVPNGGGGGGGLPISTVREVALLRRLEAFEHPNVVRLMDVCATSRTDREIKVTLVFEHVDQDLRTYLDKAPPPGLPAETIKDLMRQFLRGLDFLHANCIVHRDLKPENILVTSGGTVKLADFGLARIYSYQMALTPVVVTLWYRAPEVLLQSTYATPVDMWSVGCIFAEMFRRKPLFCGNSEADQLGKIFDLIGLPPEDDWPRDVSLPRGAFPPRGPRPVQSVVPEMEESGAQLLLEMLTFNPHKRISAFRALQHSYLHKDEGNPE
T1 sequence (Q96SW2 whole entry): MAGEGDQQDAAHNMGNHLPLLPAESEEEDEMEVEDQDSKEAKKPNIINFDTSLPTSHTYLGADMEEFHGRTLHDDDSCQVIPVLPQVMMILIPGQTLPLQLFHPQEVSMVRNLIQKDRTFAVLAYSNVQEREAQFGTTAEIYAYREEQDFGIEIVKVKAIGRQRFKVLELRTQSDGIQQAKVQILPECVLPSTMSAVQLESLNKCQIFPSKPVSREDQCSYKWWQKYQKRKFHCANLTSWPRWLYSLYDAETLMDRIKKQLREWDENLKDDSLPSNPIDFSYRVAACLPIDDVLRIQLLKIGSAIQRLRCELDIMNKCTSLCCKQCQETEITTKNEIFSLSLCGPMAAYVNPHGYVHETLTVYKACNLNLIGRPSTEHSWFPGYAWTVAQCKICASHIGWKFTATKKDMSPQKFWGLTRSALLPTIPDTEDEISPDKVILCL
T1 sequence (Q16531 whole entry partner): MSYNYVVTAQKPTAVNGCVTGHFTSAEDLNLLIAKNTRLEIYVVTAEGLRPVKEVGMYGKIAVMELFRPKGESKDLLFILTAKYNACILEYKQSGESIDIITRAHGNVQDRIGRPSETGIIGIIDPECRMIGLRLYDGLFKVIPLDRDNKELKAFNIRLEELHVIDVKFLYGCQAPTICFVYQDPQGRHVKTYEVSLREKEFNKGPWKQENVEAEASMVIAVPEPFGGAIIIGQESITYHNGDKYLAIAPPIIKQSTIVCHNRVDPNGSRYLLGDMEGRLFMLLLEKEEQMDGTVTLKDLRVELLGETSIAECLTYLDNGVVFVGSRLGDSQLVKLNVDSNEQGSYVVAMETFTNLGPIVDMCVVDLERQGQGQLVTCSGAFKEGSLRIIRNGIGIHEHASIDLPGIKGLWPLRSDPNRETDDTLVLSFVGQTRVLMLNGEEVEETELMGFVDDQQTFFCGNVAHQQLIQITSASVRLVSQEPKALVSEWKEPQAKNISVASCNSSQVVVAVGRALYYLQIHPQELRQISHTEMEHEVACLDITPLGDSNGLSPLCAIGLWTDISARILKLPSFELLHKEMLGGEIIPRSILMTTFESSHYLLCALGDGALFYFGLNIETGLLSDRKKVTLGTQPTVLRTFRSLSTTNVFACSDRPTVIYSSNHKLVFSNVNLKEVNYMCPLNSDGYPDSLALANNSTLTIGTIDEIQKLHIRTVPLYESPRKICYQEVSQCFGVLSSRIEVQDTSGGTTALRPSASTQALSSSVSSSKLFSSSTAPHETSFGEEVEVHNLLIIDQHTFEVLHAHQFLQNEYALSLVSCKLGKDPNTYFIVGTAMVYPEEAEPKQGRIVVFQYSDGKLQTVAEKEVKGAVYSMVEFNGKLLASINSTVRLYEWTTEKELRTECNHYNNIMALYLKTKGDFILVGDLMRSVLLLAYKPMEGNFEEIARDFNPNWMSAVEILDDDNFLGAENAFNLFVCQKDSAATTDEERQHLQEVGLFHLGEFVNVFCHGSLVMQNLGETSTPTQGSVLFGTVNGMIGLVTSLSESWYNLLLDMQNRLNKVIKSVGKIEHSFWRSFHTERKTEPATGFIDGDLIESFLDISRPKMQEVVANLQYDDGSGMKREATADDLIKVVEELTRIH
T2 sequence (Q00534 whole entry): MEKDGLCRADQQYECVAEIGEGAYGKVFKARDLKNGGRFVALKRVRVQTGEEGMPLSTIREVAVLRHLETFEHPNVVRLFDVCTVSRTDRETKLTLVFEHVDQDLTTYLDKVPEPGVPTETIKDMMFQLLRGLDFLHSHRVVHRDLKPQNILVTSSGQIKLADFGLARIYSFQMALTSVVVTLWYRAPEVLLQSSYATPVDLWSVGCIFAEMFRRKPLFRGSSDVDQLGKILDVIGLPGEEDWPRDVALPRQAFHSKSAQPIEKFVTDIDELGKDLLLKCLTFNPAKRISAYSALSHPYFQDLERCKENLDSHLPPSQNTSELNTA
T2 sequence (Q96SW2 whole entry): as the sequence (Q96SW2 whole entry) above
T2 sequence (Q16531 whole entry partner): as the sequence (Q16531 whole entry partner) above
T3 sequence (Q96SW2 whole entry): as the sequence (Q96SW2 whole entry) above

SMILES: CN(C)C(=O)c1cc2cnc(Nc3ccc(N4CCC(CN5CCN(c6cc7c(cc6F)C(=O)N(N6CCC(=O)NC6=O)C7=O)CC5)CC4)cn3)nc2n1C1CCCC1 [GT-05199, 7-cyclopentyl-2-((5-(4-((4-(2-(2,4-dioxotetrahydropyrimidin-1(2H)-yl)-6-fluoro-1,3-dioxoisoindolin-5-yl)piperazin-1-yl)methyl)piperidin-1-yl)pyridin-2-yl)amino)-N,N-dimethyl-7H-pyrrolo[2,3-d]pyrimidine-6-carboxamide]
inhibition at 0.01 µM [1]: 40 to 60%
inhibition at 0.5 µM [1]: 35 to 40%
Degradation of substrate protein CDK4 (substrate protein remaining %) (CDK4): B (80%<substrate protein remaining %≤100%)
Degradation of substrate protein CDK6 (substrate protein remaining %) (CDK6): A (0%≤substrate protein remaining %≤80%)

SMILES: Cc1nc2c(F)cc(-c3nc(Nc4ccc(CN5CCN(CC6CCN(c7ccc8c(c7)C(=O)N(N7CCC(=O)NC7=O)C8=O)CC6)CC5)cn4)ncc3F)cc2n1C(C)C [GT-06662, 2-(2,4-dioxotetrahydropyrimidin-1(2H)-yl)-5-(4-((4-((6-((5-fluoro-4-(4-fluoro-1-isopropyl-2-methyl-1H-benzo[d]imidazol-6-yl)pyrimidin-2-yl)amino)pyridin-3-yl)methyl)piperazin-1-yl)methyl)piperidin-1-yl)isoindoline-1,3-dione]
Degradation of substrate protein CDK4 (substrate protein remaining %) (CDK4): B (80%<substrate protein remaining %≤100%)
Degradation of substrate protein CDK6 (substrate protein remaining %) (CDK6): A (0%≤substrate protein remaining %≤80%)
inhibition at 0.5 µM ([2]; 0.5 μM, read-out: Inhibition Rate at 0.5 μM (%)): 30 to 40%
inhibition at 2 µM ([2]; 2 μM, read-out: Inhibition Rate at 2 μM (%)): 53 to 60%

SMILES: CN(C)C(=O)c1cc2cnc(Nc3ccc(N4CCC(CN5CCN(C6CCN(c7ccc8c(c7)C(=O)N(N7CCC(=O)NC7=O)C8=O)CC6(F)F)CC5)CC4)cn3)nc2n1C1CCCC1 (stereo not drawn) [GT-05206, 7-cyclopentyl-2-((5-(4-((4-(1-(2-(2,4-dioxotetrahydropyrimidin-1(2H)-yl)-1,3-dioxoisoindolin-5-yl)-3,3-difluoropiperidin-4-yl)piperazin-1-yl)methyl)piperidin-1-yl)pyridin-2-yl)amino)-N,N-dimethyl-7H-pyrrolo[2,3-d]pyrimidine-6-carboxamide]
Degradation of substrate protein CDK4 (substrate protein remaining %) (CDK4): B (80%<substrate protein remaining %≤100%)
Degradation of substrate protein CDK6 (substrate protein remaining %) (CDK6): A (0%≤substrate protein remaining %≤80%)

SMILES: Cc1nc2c(F)cc(-c3nc(Nc4ccc(N5CCC(N(C)Cc6ccc7c(c6)C(=O)N(N6CCC(=O)NC6=O)C7=O)CC5)cn4)ncc3F)cc2n1C(C)C [GT-06732, 2-(2,4-dioxotetrahydropyrimidin-1(2H)-yl)-5-(((1-(6-((5-fluoro-4-(4-fluoro-1-isopropyl-2-methyl-1H-benzo[d]imidazol-6-yl)pyrimidin-2-yl)amino)pyridin-3-yl)piperidin-4-yl)(methyl)amino)methyl)isoindoline-1,3-dione]
Degradation of substrate protein CDK4 (substrate protein remaining %) (CDK4): B (80%<substrate protein remaining %≤100%)
Degradation of substrate protein CDK6 (substrate protein remaining %) (CDK6): A (0%≤substrate protein remaining %≤80%)

SMILES: CN(C)C(=O)c1cc2cnc(Nc3ccc(N4CCN(CC5CCN(c6ccc7c(c6)C(=O)N(N6CCC(=O)NC6=O)C7=O)CC5)CC4)cn3)nc2n1C1CCCC1 [GT-06337, 7-cyclopentyl-2-((5-(4-((1-(2-(2,4-dioxotetrahydropyrimidin-1(2H)-yl)-1,3-dioxoisoindolin-5-yl)piperidin-4-yl)methyl)piperazin-1-yl)pyridin-2-yl)amino)-N,N-dimethyl-7H-pyrrolo[2,3-d]pyrimidine-6-carboxamide]
Degradation of substrate protein CDK4 (substrate protein remaining %) (CDK4): B (80%<substrate protein remaining %≤100%)
Degradation of substrate protein CDK6 (substrate protein remaining %) (CDK6): A (0%≤substrate protein remaining %≤80%)

SMILES: CN(C)C(=O)c1cc2cnc(Nc3ccc(N4CCC(CN5C6CC5CN(c5ccc7c(c5)C(=O)N(N5CCC(=O)NC5=O)C7=O)C6)CC4)cn3)nc2n1C1CCCC1 [GT-05820, 7-cyclopentyl-2-((5-(4-((3-(2-(2,4-dioxotetrahydropyrimidin-1(2H)-yl)-1,3-dioxoisoindolin-5-yl)-3,6-diazabicyclo[3.1.1]heptan-6-yl)methyl)piperidin-1-yl)pyridin-2-yl)amino)-N,N-dimethyl-7H-pyrrolo[2,3-d]pyrimidine-6-carboxamide]
Degradation of substrate protein CDK4 (substrate protein remaining %) (CDK4): B (80%<substrate protein remaining %≤100%)
Degradation of substrate protein CDK6 (substrate protein remaining %) (CDK6): A (0%≤substrate protein remaining %≤80%)

SMILES: CC(=O)c1c(C)c2cnc(Nc3ccc(N4CCC(N(C)Cc5ccc6c(c5)CN(N5CCC(=O)NC5=O)C6=O)CC4)cn3)nc2n(C2CCCC2)c1=O [GT-06586, 1-(5-(((1-(6-((6-acetyl-8-cyclopentyl-5-methyl-7-oxo-7,8-dihydropyrido[2,3-d]pyrimidin-2-yl)amino)pyridin-3-yl)piperidin-4-yl)(methyl)amino)methyl)-1-oxoisoindolin-2-yl)dihydropyrimidine-2,4 (1H,3H)-dione]
inhibition at 0.01 µM ([3]; MV-4-11, 10 nM, read-out: Inhibition Rate at 10 nM (%)): 25 to 30%
inhibition at 0.5 µM ([3]; MV-4-11, 500 nM, read-out: Inhibition Rate at 500 nM (%)): 40 to 60%
Degradation of substrate protein CDK4 (substrate protein remaining %) (CDK4): A (0%≤substrate protein remaining %≤80%)
Degradation of substrate protein CDK6 (substrate protein remaining %) (CDK6): A (0%≤substrate protein remaining %≤80%)

Now from value to molecule, other results behind:

Degradation of substrate protein CDK4 (substrate protein remaining %) (CDK4): A (0%≤substrate protein remaining %≤80%)
SMILES: CN(C)C(=O)c1cc2cnc(Nc3ccc(N4CCN(Cc5ccc6c(c5)C(=O)N(N5CCC(=O)NC5=O)C6=O)CC4)cn3)nc2n1C1CCCC1 [GT-06336, 7-cyclopentyl-2-((5-(4-((2-(2,4-dioxotetrahydropyrimidin-1(2H)-yl)-1,3-dioxoisoindolin-5-yl)methyl)piperazin-1-yl)pyridin-2-yl)amino)-N,N-dimethyl-7H-pyrrolo[2,3-d]pyrimidine-6-carboxamide]
Degradation of substrate protein CDK6 (substrate protein remaining %) (CDK6): B (80%<substrate protein remaining %≤100%)

Degradation of substrate protein CDK4 (substrate protein remaining %) (CDK4): A (0%≤substrate protein remaining %≤80%)
Degradation of substrate protein CDK6 (substrate protein remaining %) (CDK6): A (0%≤substrate protein remaining %≤80%)
SMILES: CN(C)C(=O)c1cc2cnc(Nc3ccc(N4CCC(N(C)Cc5ccc6c(c5)CN(N5CCC(=O)NC5=O)C6=O)CC4)cn3)nc2n1C1CCCC1 [GT-06487, 7-cyclopentyl-2-((5-(4-(((2-(2,4-dioxotetrahydropyrimidin-1(2H)-yl)-1-oxoisoindolin-5-yl)methyl)(methyl)amino)piperidin-1-yl)pyridin-2-yl)amino)-N,N-dimethyl-7H-pyrrolo[2,3-d]pyrimidine-6-carboxamide]
inhibition at 0.01 µM [1]: 25 to 30%
inhibition at 0.5 µM [1]: 40 to 60%

Degradation of substrate protein CDK4 (substrate protein remaining %) (CDK4): A (0%≤substrate protein remaining %≤80%)
Degradation of substrate protein CDK6 (substrate protein remaining %) (CDK6): A (0%≤substrate protein remaining %≤80%)
SMILES: CN(C)C(=O)c1cc2cnc(Nc3ccc(N4CCC(N5CCN(Cc6ccc7c(c6)CN(N6CCC(=O)NC6=O)C7=O)CC5)CC4)cn3)nc2n1C1CCCC1 [GT-06497, 7-cyclopentyl-2-((5-(4-(4-((2-(2,4-dioxotetrahydropyrimidin-1(2H)-yl)-1-oxoisoindolin-5-yl)methyl)piperazin-1-yl)piperidin-1-yl)pyridin-2-yl)amino)-N,N-dimethyl-7H-pyrrolo[2,3-d]pyrimidine-6-carboxamide]

Degradation of substrate protein CDK4 (substrate protein remaining %) (CDK4): A (0%≤substrate protein remaining %≤80%)
Degradation of substrate protein CDK6 (substrate protein remaining %) (CDK6): A (0%≤substrate protein remaining %≤80%)
SMILES: CN(C)C(=O)c1cc2cnc(Nc3ccc(N4CCC(N5CCN(Cc6ccc7c(c6)C(=O)N(N6CCC(=O)NC6=O)C7=O)CC5)CC4)cn3)nc2n1C1CCCC1 [GT-06498, 7-cyclopentyl-2-((5-(4-(4-((2-(2,4-dioxotetrahydropyrimidin-1(2H)-yl)-1,3-dioxoisoindolin-5-yl)methyl)piperazin-1-yl)piperidin-1-yl)pyridin-2-yl)amino)-N,N-dimethyl-7H-pyrrolo[2,3-d]pyrimidine-6-carboxamide]
